From paper PMC9114170, “Investigation of the Role of Hydrophobic Amino Acids on the Structure-Activity Relationship in the Antimicrobial Venom Peptide Ponericin L1” (The Journal of membrane biology, 2021)
Ends that are not written are not given here.

Assays:
[1] = tested on: Acinetobacter baumannii ATCC 19606; type: cell-based; conditions: highest concentration tested 15 μM
Procedure: (§1) Six different strains of bacteria were streaked on LB-Miller agar plates from a frozen glycerol stock derived from the original samples shipped from CGSC (Coli Genetic Stock Center, Yale University) or ATCC (American Type Culture Collection) (Escherichia coli D31 CGSC 5165 ([Burman, Nordstrom & Boman, 1968]), Staphylococcus aureus ATCC 35556. Pseudomonas aeruginosa PA-01 ATCC 47085, Acinetobacter baumannii ATCC 19606). For each of the strains a liquid overnight culture was prepared using a single colony into fresh LB broth and placed in a shaking incubator for ~ 18 hours at 37 C at 225 rpm. After the incubation period, a 1:200 dilution was made in fresh LB broth and then used for experimentation. Minimal Inhibitory Concentration (MIC) determinations were performed using mid-log phase bacteria diluted to 5 x 10^5 CFU/mL. Next, 90 μL of this diluted culture was then pipetted into a sterile 96-well plate that contains serially diluted aliquots of the peptide variants to consist of a total volume of 100 μL. This plate was then incubated for 18 hours at 37 C. Bacterial growth was determined by taking an OD600 measurement using a Spectramax M5 multimode plate reader post incubation. Minimal Bactericidal Concentration (MBC) was performed by taking 1 μL of the culture from the MIC plate and then pipetting it on to a fresh LB agar plate. After plating this culture, the plate was then incubated overnight at 37 C. MBC was determined by the growth or the lack of growth from each well on the agar plate.
(§2) The ability of L1 and the hydrophobic variants to act as antimicrobials was investigated using the Minimal Inhibitory Concentration (MIC) and Minimal Bactericidal Concentration (MBC) assays as previously described ([Wiegand, Hilpert & Hancock, 2008]). The MIC is determined as the lowest concentration of peptide required to inhibit bacterial growth in solution, while the MBC is the lowest concentration required to act in a bactericidal mechanism (as opposed to bacteriostatic) and is determined by plating MIC cultures on antimicrobial-free media. Peptides were screened against E. coli, S. aureus, A. baumannii, P. aeruginosa, B. subtilis, and K. pneumoniae.

B. subtilis = type: cell-based; conditions: highest concentration tested 15 μM
Procedure: as §1, §2

[2] = tested on: Escherichia coli D31 CGSC 5165; type: cell-based; conditions: highest concentration tested 15 μM
Procedure: as §1, §2

K. pneumoniae = type: cell-based; conditions: highest concentration tested 15 μM
Procedure: as §1, §2

[3] = tested on: Pseudomonas aeruginosa PA-01 ATCC 47085; type: cell-based; conditions: highest concentration tested 15 μM
Procedure: as §1, §2

[4] = tested on: Staphylococcus aureus ATCC 35556; type: cell-based; conditions: highest concentration tested 15 μM
Procedure: as §1, §2

[5] = Red edge excitation shift (REES) solution aggregation assay; type: physicochemical; conditions: 2 μM peptide in PBS pH 7.0, λex 280 to 307 nm, emission 310 to 410 nm, Trp fluorescence, average of three replicates
Description: All fluorescence spectroscopy experiments were preformed using a JY-Horiba Fluoromax4 instrument. Excitation and emission slit widths were kept consistent at 2.5 nm. Semi-micro quartz cuvettes were utilized for each experiment. The following formula was used to calculate a spectral barycenter for each experiment: (1) B=∑λ*i/∑i where B is the barycenter, λ is the wavelength, and i is the intensity at the specified wavelength. An entire emission spectrum from 300-400 was used the carry out the calculation of barycenter.
Red edge excitation shift (REES) experiments utilized excitation at 6 different wavelengths (λex = 280, 290, 295, 300, 305, and 307 nm) and the same emission range of 310 to 410 nm. Samples were similarly prepared as above. A blank only containing PBS buffer was used as background to correct the spectra after each addition.
Aggregation of peptides was assessed utilizing the intrinsic fluorescence properties of the Trp residue in the L1 sequence. […] Differences in the side chain motion/dynamics of the Trp residue and the local environment around the Trp can be observed by monitoring the red-edge excitation shifts (REES). […]

[6] = 1 μL of MIC plate culture on LB agar, overnight at 37 C
[7] = LB broth, 5 x 10^5 CFU/mL, 18 hours at 37 C, OD600

FFKEFWTKMKGAGKAFFGKFKGFF [L1F]
MBC A. baumannii [1, 6]: 0.938 µM | MIC A. baumannii [1, 7]: 0.47 µM | MBC B. subtilis (B. subtilis; [6]): 1.88 µM | MIC B. subtilis (B. subtilis; [7]): 1.88 µM | MBC E. coli [2, 6]: >15 µM | MIC E. coli [2, 7]: 0.94 µM | MBC K. pneumoniae (K. pneumoniae; [6]): 7.5 µM | MIC K. pneumoniae (K. pneumoniae; [7]): 1.88 µM | MBC P. aeruginosa [3, 6]: >15 µM | MIC P. aeruginosa [3, 7]: 7.5 µM | MBC S. aureus [4, 6]: 1.88 µM | MIC S. aureus [4, 7]: 0.94 µM | REES total shift [5]: ~ 2 nm
